According to PMC10864275, “Binding kinetics drive G protein subtype selectivity at the β1-adrenergic receptor” (Nature Communications, 2024):

Biological target: T1, β1AR-E signalling via Gs (Meleagris gallopavo, UniProt P07700, C116L/C358A/DEL244-271/F327A/F338A/M179L/M281A/M44L/M48L/R68S)
T1 construct: expressed in transfected cells; host or cells: HEK293T
Type: cell-based, turkey
Settings: G protein not given
Text: We next assessed G protein coupling using the TRUPATH BRET2 biosensor assay[46] (Supplementary Fig. 2c) expressed in HEK293T cells, allowing examination of signalling via the canonical coupling partner Gs. […] Therefore, the TRUPATH and ligand binding assays confirmed that reversal of the thermostabilising mutation increased receptor activity without impacting ligand affinity. Also, although less efficacious, the thermostabilised β1AR-W construct still retained functional G protein coupling.
For Gq, a constitutively active mutated version (R183Q) was used to increase the sensitivity for detection of Gq activation. After 24 h, cells were harvested and seeded onto PLL-coated white 96-well plates (Greiner Bio-One) at a density of 50,000 cells per well. […] The plate was then incubated for 10 min at room temperature in the dark.

T1 sequence (P07700 other isoform, or with tags, fused parts or gaps with the stated changes): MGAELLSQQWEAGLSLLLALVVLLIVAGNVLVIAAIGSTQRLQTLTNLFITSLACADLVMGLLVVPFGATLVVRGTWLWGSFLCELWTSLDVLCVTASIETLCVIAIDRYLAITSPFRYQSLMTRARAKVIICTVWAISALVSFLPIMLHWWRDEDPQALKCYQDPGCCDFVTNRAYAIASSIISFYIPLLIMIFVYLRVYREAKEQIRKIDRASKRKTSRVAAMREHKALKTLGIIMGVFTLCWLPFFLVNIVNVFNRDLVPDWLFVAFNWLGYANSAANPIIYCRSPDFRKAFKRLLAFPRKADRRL

| SMILES | potency in TRUPATH assays relative to isoprenaline |
| --- | --- |
| CC(C)(C)NCC(O)c1ccc(O)c(CO)c1 (centres unmarked) [Sal., salbutamol] | decreased potency |
| O=C(NCCNCC(O)COc1ccc(O)cc1)N1CCOCC1 (centres unmarked) [Xam., xamoterol] | decreased potency |
